Results taken from patent publication US9708314B2, “Heterocyclic amide compound” (NISSAN CHEMICAL INDUSTRIES, LTD., priority 2013, dated 2017).

How the values were obtained:
Type in all cases: in vivo
[1] = tested on: Cyperus difformis; assay: Test Example 3: herbicidal effect by application to foliage (Wagner pot, water depth 0.1-0.5 cm); conditions: Nineteenth Table; application to foliage; application herbicide amount 320 g/ha
Procedure, shortened: (§1)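 Post-emergence foliar application at a stated g/ha rate to plants grown 14 days from seed in alluvial soil, greenhouse 25–30 °C. Visual score after 3 weeks: 0 (≤5% effect) through 5 (≥90%).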

[2] = tested on: Echinochloa crus-galli var. crus-galli; assay: as above; conditions: Nineteenth Table; application to foliage; application herbicide amount 320 g/ha
Procedure, shortened: as §1

[3] = tested on: Leptochloa chinensis; assay: as above; conditions: Nineteenth Table; application to foliage; application herbicide amount 320 g/ha
Procedure, shortened: as §1

[4] = tested on: directly sowed Oryza sativa; assay: Test Example 3: effect on crop by application to foliage (Wagner pot, water depth 0.1-0.5 cm); conditions: Nineteenth Table; application to foliage; application herbicide amount 320 g/ha
Procedure, shortened: as §1

[5] = tested on: Abutilon theophrasti; assay: Test Example 4: herbicidal effect by application to foliage (diluvial soil, plastic box); conditions: Application herbicide amount 320 g/ha; foliage application
Procedure, shortened: (§2)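 Read-out is a 0–5 visual grade of herbicidal ratio (5: ≥90%, almost withered; 0: ≤5%) taken three weeks after treatment. Compound was applied as a diluted emulsion to stem and leaf parts of 14-day greenhouse-grown plants (25° C. to 30° C.) at rates expressed as g/ha.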

[6] = tested on: Alopecurus myosuroides; assay: as above; conditions: Application herbicide amount 320 g/ha; foliage application
Procedure, shortened: as §2

[7] = tested on: Amaranthus retroflexus; assay: as above; conditions: Application herbicide amount 320 g/ha; foliage application
Procedure, shortened: as §2

[8] = tested on: Apera spica-venti.; assay: as above; conditions: Application herbicide amount 320 g/ha; foliage application
Procedure, shortened: as §2

[9] = tested on: Avena fatua; assay: as above; conditions: Application herbicide amount 320 g/ha; foliage application
Procedure, shortened: as §2

[10] = tested on: Chenopodium album; assay: as above; conditions: Application herbicide amount 320 g/ha; foliage application
Procedure, shortened: as §2

[11] = tested on: Digitaria ciliaris; assay: as above; conditions: Application herbicide amount 320 g/ha; foliage application
Procedure, shortened: as §2

[12] = tested on: Echinochloa crus-galli var. crus-galli; assay: as above; conditions: Application herbicide amount 320 g/ha; foliage application
Procedure, shortened: as §2

[13] = tested on: Galium spurium; assay: as above; conditions: Application herbicide amount 320 g/ha; foliage application
Procedure, shortened: as §2

[14] = tested on: Lolium multiflorum Lam.; assay: as above; conditions: Application herbicide amount 320 g/ha; foliage application
Procedure, shortened: as §2

[15] = tested on: Setaria viridis; assay: as above; conditions: Application herbicide amount 320 g/ha; foliage application
Procedure, shortened: as §2

[16] = tested on: Stellaria media; assay: as above; conditions: Application herbicide amount 320 g/ha; foliage application
Procedure, shortened: as §2

[17] = tested on: Veronica persica; assay: as above; conditions: Application herbicide amount 320 g/ha; foliage application
Procedure, shortened: as §2

[18] = tested on: Beta vulgaris ssp. vulgaris; assay: Test Example 4: effect on crop by application to foliage (diluvial soil, plastic box); conditions: Application herbicide amount 320 g/ha; foliage application
Procedure, shortened: as §2

[19] = tested on: Brassica campestris L.; assay: as above; conditions: Application herbicide amount 320 g/ha; foliage application
Procedure, shortened: as §2

[20] = tested on: Glycine max; assay: as above; conditions: Application herbicide amount 320 g/ha; foliage application
Procedure, shortened: as §2

[21] = tested on: Triticum aestivum; assay: as above; conditions: Application herbicide amount 320 g/ha; foliage application
Procedure, shortened: as §2

[22] = tested on: Zea mays; assay: as above; conditions: Application herbicide amount 320 g/ha; foliage application
Procedure, shortened: as §2

| SMILES | E (herbicidal effect grade) [1] | H (herbicidal effect grade) [2] | D (herbicidal effect grade) [3] | b (effect on crop grade) [4] | M (Abutilon theophrasti) herbicidal effect grade [5] | J (Alopecurus myosuroides) herbicidal effect grade [6] | N (Amaranthus retroflexus) herbicidal effect grade [7] | L (Apera spica-venti.) herbicidal effect grade [8] | I (Avena fatua) herbicidal effect grade [9] | O (Chenopodium album) herbicidal effect grade [10] | F (Digitaria ciliaris) herbicidal effect grade [11] | H (Echinochloa crus-galli var. crus-galli) herbicidal effect grade [12] | Q (Galium spurium) herbicidal effect grade [13] | K (Lolium multiflorum Lam.) herbicidal effect grade [14] | G (Setaria viridis) herbicidal effect grade [15] | P (Stellaria media) herbicidal effect grade [16] | R (Veronica persica) herbicidal effect grade [17] | f (Beta vulgaris ssp. vulgaris) effect on crop grade [18] | g (Brassica campestris L.) effect on crop grade [19] | d (Glycine max) effect on crop grade [20] | further results |
| --- | --- | --- | --- | --- | --- | --- | --- | --- | --- | --- | --- | --- | --- | --- | --- | --- | --- | --- | --- | --- | --- |
| CC(C)c1nnc2c(C(=O)Nc3nnc(CS(C)(=O)=O)o3)ccc(C(F)(F)F)n12 [1-142] | 0 (Herbicidal ratio of 5% or less (almost no effect)) | 3 (Herbicidal ratio of 40% or more and less than 70%) | 1 (Herbicidal ratio of 5% or more and less than 20%) | 0 (Herbicidal ratio of 5% or less (almost no effect)) | 0 (Herbicidal ratio of 5% or less (almost no effect)) | 0 (Herbicidal ratio of 5% or less (almost no effect)) | 1 (Herbicidal ratio of 5% or more and less than 20%) | 0 (Herbicidal ratio of 5% or less (almost no effect)) | 0 (Herbicidal ratio of 5% or less (almost no effect)) | 4 (Herbicidal ratio of 70% or more and less than 90%) | 1 (Herbicidal ratio of 5% or more and less than 20%) | 3 (Herbicidal ratio of 40% or more and less than 70%) | 1 (Herbicidal ratio of 5% or more and less than 20%) | 0 (Herbicidal ratio of 5% or less (almost no effect)) | 0 (Herbicidal ratio of 5% or less (almost no effect)) | 2 (Herbicidal ratio of 20% or more and less than 40%) | 0 (Herbicidal ratio of 5% or less (almost no effect)) | 3 (Herbicidal ratio of 40% or more and less than 70%) | 0 (Herbicidal ratio of 5% or less (almost no effect)) | 0 (Herbicidal ratio of 5% or less (almost no effect)) | e (Triticum aestivum) effect on crop grade [21]: 0 (Herbicidal ratio of 5% or less (almost no effect)); c (Zea mays) effect on crop grade [22]: 0 (Herbicidal ratio of 5% or less (almost no effect)) |
| CSCc1nnc(NC(=O)c2ccc(C(F)(F)F)n3c(C(C)C)nnc23)o1 [1-141] | 3 (Herbicidal ratio of 40% or more and less than 70%) | 4 (Herbicidal ratio of 70% or more and less than 90%) | 2 (Herbicidal ratio of 20% or more and less than 40%) | 1 (Herbicidal ratio of 5% or more and less than 20%) | 3 (Herbicidal ratio of 40% or more and less than 70%) | 0 (Herbicidal ratio of 5% or less (almost no effect)) | 3 (Herbicidal ratio of 40% or more and less than 70%) | 0 (Herbicidal ratio of 5% or less (almost no effect)) | 0 (Herbicidal ratio of 5% or less (almost no effect)) | 4 (Herbicidal ratio of 70% or more and less than 90%) | 3 (Herbicidal ratio of 40% or more and less than 70%) | 4 (Herbicidal ratio of 70% or more and less than 90%) | 1 (Herbicidal ratio of 5% or more and less than 20%) | 0 (Herbicidal ratio of 5% or less (almost no effect)) | 1 (Herbicidal ratio of 5% or more and less than 20%) | 3 (Herbicidal ratio of 40% or more and less than 70%) | 3 (Herbicidal ratio of 40% or more and less than 70%) | 4 (Herbicidal ratio of 70% or more and less than 90%) | 4 (Herbicidal ratio of 70% or more and less than 90%) | 1 (Herbicidal ratio of 5% or more and less than 20%) | e (Triticum aestivum) effect on crop grade [21]: 0 (Herbicidal ratio of 5% or less (almost no effect)); c (Zea mays) effect on crop grade [22]: 0 (Herbicidal ratio of 5% or less (almost no effect)) |
| COC(=O)CSc1nnc2c(C(=O)Nc3nnc(C)o3)ccc(C(F)(F)F)n12 [1-127] | 3 (Herbicidal ratio of 40% or more and less than 70%) | 4 (Herbicidal ratio of 70% or more and less than 90%) | 4 (Herbicidal ratio of 70% or more and less than 90%) | 0 (Herbicidal ratio of 5% or less (almost no effect)) | 2 (Herbicidal ratio of 20% or more and less than 40%) | 0 (Herbicidal ratio of 5% or less (almost no effect)) | 1 (Herbicidal ratio of 5% or more and less than 20%) | 0 (Herbicidal ratio of 5% or less (almost no effect)) | 0 (Herbicidal ratio of 5% or less (almost no effect)) | 5 (Herbicidal ratio of 90% or more (almost completely withered)) | 1 (Herbicidal ratio of 5% or more and less than 20%) | 4 (Herbicidal ratio of 70% or more and less than 90%) | 0 (Herbicidal ratio of 5% or less (almost no effect)) | 0 (Herbicidal ratio of 5% or less (almost no effect)) | 1 (Herbicidal ratio of 5% or more and less than 20%) | 3 (Herbicidal ratio of 40% or more and less than 70%) | 1 (Herbicidal ratio of 5% or more and less than 20%) | 2 (Herbicidal ratio of 20% or more and less than 40%) | 0 (Herbicidal ratio of 5% or less (almost no effect)) | 1 (Herbicidal ratio of 5% or more and less than 20%) | e (Triticum aestivum) effect on crop grade [21]: 0 (Herbicidal ratio of 5% or less (almost no effect)); c (Zea mays) effect on crop grade [22]: 0 (Herbicidal ratio of 5% or less (almost no effect)) |
